Reference: ChEMBL document CHEMBL1201862, “PubChem BioAssay data set” (2004)
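Results reflect a 48-hour exposure of cells in 96-well plates to compound at five concentrations. GI50 = concentration required for 50% inhibition of growth.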 Activity calls are given as the source filed them. Rule as the data show it: active = GI50 up to about 1.1 µM and inactive = higher.

Key:
Assay in all cases: NCI tumour cell line growth inhibition, 48 h
SN12C = tested on: SN12C
MCF7 = tested on: MCF7
SNB-75 = tested on: SNB-75
PC-3 = tested on: PC-3
KM12 = tested on: KM12
HOP-92 = tested on: HOP-92
COLO 205 = tested on: COLO 205
U-251 = tested on: U-251
Hs-578T = tested on: Hs-578T
T47D = tested on: T47D
OVCAR-8 = tested on: OVCAR-8
UO-31 = tested on: UO-31
EKVX = tested on: EKVX
MDA-N = tested on: MDA-N
RPMI-8226 = tested on: RPMI-8226
786-0 = tested on: 786-0
SW-620 = tested on: SW-620
IGROV-1 = tested on: IGROV-1
CCRF-CEM = tested on: CCRF-CEM
SK-OV-3 = tested on: SK-OV-3
HCT-15 = tested on: HCT-15
NCI-H226 = tested on: NCI-H226
SK-MEL-2 = tested on: SK-MEL-2
MDA-MB-435 = tested on: MDA-MB-435
SK-MEL-5 = tested on: SK-MEL-5
MOLT-4 = tested on: MOLT-4
DU-145 = tested on: DU-145
CAKI-1 = tested on: CAKI-1
OVCAR-5 = tested on: OVCAR-5
HOP-62 = tested on: HOP-62
SK-MEL-28 = tested on: SK-MEL-28
LOX IMVI = tested on: LOX IMVI
NCI-H460 = tested on: NCI-H460
TK-10 = tested on: TK-10
HT-29 = tested on: HT-29
HL-60 = tested on: HL-60
SNB-19 = tested on: SNB-19
SR = tested on: SR
A549 = tested on: A549
MDA-MB-231 = tested on: MDA-MB-231
M14 = tested on: M14
SF-539 = tested on: SF-539
UACC-62 = tested on: UACC-62
OVCAR-4 = tested on: OVCAR-4
BT-549 = tested on: BT-549
OVCAR-3 = tested on: OVCAR-3
HCT-116 = tested on: HCT-116
UACC-257 = tested on: UACC-257
K562 = tested on: K562
ACHN = tested on: ACHN
A498 = tested on: A498
NCI/ADR-RES = tested on: NCI/ADR-RES
SF-295 = tested on: SF-295
RXF 393 = tested on: RXF 393
SF-268 = tested on: SF-268
Malme-3M = tested on: Malme-3M
NCI-H23 = tested on: NCI-H23
NCI-H522 = tested on: NCI-H522
HCC 2998 = tested on: HCC 2998

O=C(O)CN1CCNCCNCC1
GI50 (SN12C): > 100 µM (inactive) | GI50 (MCF7): > 100 µM (inactive) | GI50 (SNB-75): 17.5 µM (inactive) | GI50 (PC-3): > 100 µM (inactive) | GI50 (KM12): 59.6 µM (inactive) | GI50 (HOP-92): > 100 µM (inactive) | GI50 (COLO 205): > 100 µM (inactive) | GI50 (U-251): > 100 µM (inactive) | GI50 (Hs-578T): > 100 µM (inactive) | GI50 (T47D): > 100 µM (inactive) | GI50 (OVCAR-8): > 100 µM (inactive) | GI50 (UO-31): > 100 µM (inactive) | GI50 (EKVX): > 100 µM (inactive) | GI50 (MDA-N): > 100 µM (inactive) | GI50 (RPMI-8226): > 100 µM (inactive) | GI50 (786-0): > 100 µM (inactive) | GI50 (SW-620): > 100 µM (inactive) | GI50 (IGROV-1): > 100 µM (inactive) | GI50 (CCRF-CEM): > 100 µM (inactive) | GI50 (SK-OV-3): > 100 µM (inactive) | GI50 (HCT-15): > 100 µM | GI50 (NCI-H226): > 100 µM (inactive) | GI50 (SK-MEL-2): > 100 µM (inactive) | GI50 (MDA-MB-435): > 100 µM (inactive) | GI50 (SK-MEL-5): > 100 µM (inactive) | GI50 (MOLT-4): > 100 µM (inactive) | GI50 (DU-145): > 100 µM (inactive) | GI50 (CAKI-1): > 100 µM (inactive) | GI50 (OVCAR-5): > 100 µM (inactive) | GI50 (HOP-62): > 100 µM (inactive) | GI50 (SK-MEL-28): > 100 µM (inactive) | GI50 (LOX IMVI): > 100 µM (inactive) | GI50 (NCI-H460): > 100 µM (inactive) | GI50 (TK-10): > 100 µM (inactive) | GI50 (HT-29): > 100 µM (inactive) | GI50 (HL-60): 0.9 µM (active) | GI50 (SNB-19): > 100 µM (inactive) | GI50 (SR): > 100 µM (inactive) | GI50 (A549): > 100 µM (inactive) | GI50 (MDA-MB-231): > 100 µM (inactive) | GI50 (M14): > 100 µM (inactive) | GI50 (SF-539): > 100 µM (inactive) | GI50 (UACC-62): > 100 µM (inactive) | GI50 (OVCAR-4): > 100 µM (inactive) | GI50 (BT-549): > 100 µM (inactive) | GI50 (OVCAR-3): > 100 µM (inactive) | GI50 (HCT-116): > 100 µM (inactive) | GI50 (UACC-257): > 100 µM (inactive) | GI50 (K562): > 100 µM (inactive) | GI50 (ACHN): > 100 µM (inactive) | GI50 (A498): > 100 µM (inactive) | GI50 (NCI/ADR-RES): > 100 µM (inactive)

O=[N+]([O-])/C(C(Cl)=C(Cl)Cl)=C(\N1CCCCC1)n1nnc2ccccc21
GI50 (SN12C): 18.3 µM (inactive) | GI50 (MCF7): 25.4 µM (inactive) | GI50 (SNB-75): 25.6 µM (inactive) | GI50 (PC-3): 17.6 µM (inactive) | GI50 (KM12): 25.8 µM (inactive) | GI50 (HOP-92): 19.3 µM (inactive) | GI50 (COLO 205): 17.8 µM (inactive) | GI50 (U-251): 16.9 µM (inactive) | GI50 (Hs-578T): 32.9 µM (inactive) | GI50 (T47D): 33.3 µM (inactive) | GI50 (SF-295): 17.5 µM (inactive) | GI50 (OVCAR-8): 19.9 µM (inactive) | GI50 (UO-31): 18.2 µM (inactive) | GI50 (EKVX): 8.47 µM (inactive) | GI50 (MDA-N): 20.8 µM (inactive) | GI50 (RPMI-8226): 17.2 µM (inactive) | GI50 (786-0): 18.5 µM (inactive) | GI50 (SW-620): 19.1 µM (inactive) | GI50 (IGROV-1): 16.2 µM (inactive) | GI50 (SK-OV-3): 24.9 µM (inactive) | GI50 (HCT-15): 17.8 µM | GI50 (NCI-H226): 20 µM (inactive) | GI50 (SK-MEL-2): 17.1 µM (inactive) | GI50 (MDA-MB-435): 31.6 µM (inactive) | GI50 (SK-MEL-5): 17.5 µM (inactive) | GI50 (MOLT-4): 0.443 µM (active) | GI50 (DU-145): 18.7 µM (inactive) | GI50 (CAKI-1): 15.3 µM (inactive) | GI50 (OVCAR-5): 17.8 µM (inactive) | GI50 (RXF 393): 16.3 µM (inactive) | GI50 (SF-268): 20.8 µM (inactive) | GI50 (HOP-62): 22.2 µM (inactive) | GI50 (SK-MEL-28): 22.3 µM (inactive) | GI50 (LOX IMVI): 16.7 µM (inactive) | GI50 (NCI-H460): 22.4 µM (inactive) | GI50 (Malme-3M): 21.6 µM (inactive) | GI50 (TK-10): 18.2 µM (inactive) | GI50 (HT-29): 19.5 µM (inactive) | GI50 (SNB-19): 20.9 µM (inactive) | GI50 (SR): 16.4 µM (inactive) | GI50 (A549): 22.6 µM (inactive) | GI50 (MDA-MB-231): 17.3 µM (inactive) | GI50 (M14): 17.3 µM (inactive) | GI50 (SF-539): 17.3 µM (inactive) | GI50 (UACC-62): 18.6 µM (inactive) | GI50 (NCI-H23): 19.1 µM (inactive) | GI50 (OVCAR-4): 47.1 µM (inactive) | GI50 (BT-549): 23.3 µM (inactive) | GI50 (OVCAR-3): 17.9 µM (inactive) | GI50 (HCT-116): 18.9 µM (inactive) | GI50 (UACC-257): 17.9 µM (inactive) | GI50 (K562): 8.41 µM (inactive) | GI50 (NCI-H522): 20.3 µM (inactive) | GI50 (ACHN): 19.7 µM (inactive) | GI50 (A498): 19.2 µM (inactive) | GI50 (NCI/ADR-RES): 29.6 µM (inactive)

O=C1/C(=C/Cc2ccco2)N=C(c2ccccc2)N1c1nc2c(Cl)cc(Cl)cc2s1
GI50 (SN12C): 27 µM (inactive) | GI50 (MCF7): 25.6 µM (inactive) | GI50 (PC-3): 28.3 µM (inactive) | GI50 (KM12): 27.7 µM (inactive) | GI50 (HOP-92): 27.8 µM (inactive) | GI50 (COLO 205): 40.5 µM (inactive) | GI50 (U-251): 27 µM (inactive) | GI50 (Hs-578T): 23.6 µM (inactive) | GI50 (T47D): 16.8 µM (inactive) | GI50 (SF-295): 32.1 µM (inactive) | GI50 (OVCAR-8): 36 µM (inactive) | GI50 (UO-31): 26.2 µM (inactive) | GI50 (EKVX): 15 µM (inactive) | GI50 (MDA-N): 20.9 µM (inactive) | GI50 (RPMI-8226): 12.4 µM (inactive) | GI50 (786-0): 44.8 µM (inactive) | GI50 (SW-620): 39 µM (inactive) | GI50 (IGROV-1): 29.9 µM (inactive) | GI50 (CCRF-CEM): 17.9 µM (inactive) | GI50 (SK-OV-3): 35.2 µM (inactive) | GI50 (HCT-15): 27.9 µM | GI50 (SK-MEL-2): 23.7 µM (inactive) | GI50 (MDA-MB-435): 20.5 µM (inactive) | GI50 (SK-MEL-5): 22.5 µM (inactive) | GI50 (MOLT-4): 1.02 µM (active) | GI50 (HCC 2998): 31.7 µM (inactive) | GI50 (DU-145): 27.4 µM (inactive) | GI50 (CAKI-1): 32.6 µM (inactive) | GI50 (OVCAR-5): 52.2 µM (inactive) | GI50 (RXF 393): 13.4 µM (inactive) | GI50 (SF-268): 40.3 µM (inactive) | GI50 (HOP-62): 24.8 µM (inactive) | GI50 (SK-MEL-28): 57.1 µM (inactive) | GI50 (LOX IMVI): 25.4 µM (inactive) | GI50 (NCI-H460): 32.2 µM (inactive) | GI50 (TK-10): 42.7 µM (inactive) | GI50 (HT-29): 30.8 µM (inactive) | GI50 (HL-60): 20.9 µM (inactive) | GI50 (SNB-19): 34.3 µM (inactive) | GI50 (SR): 14.9 µM (inactive) | GI50 (A549): 26.4 µM (inactive) | GI50 (MDA-MB-231): 27.2 µM (inactive) | GI50 (M14): 39.3 µM (inactive) | GI50 (SF-539): 23 µM (inactive) | GI50 (UACC-62): 27.5 µM (inactive) | GI50 (OVCAR-4): 21.3 µM (inactive) | GI50 (BT-549): 26 µM (inactive) | GI50 (OVCAR-3): 22.5 µM (inactive) | GI50 (HCT-116): 27.7 µM (inactive) | GI50 (UACC-257): 34.4 µM (inactive) | GI50 (K562): 25.1 µM (inactive) | GI50 (ACHN): 24.6 µM (inactive) | GI50 (A498): 15.2 µM (inactive) | GI50 (NCI/ADR-RES): 24.3 µM (inactive)
